Assay results taken from publication PMC10725991, “Kaempferol is a novel antiviral agent against channel catfish virus infection through blocking viral attachment and penetration in vitro” (Frontiers in Veterinary Science, 2023).

Assays:
CCV in CCO cells = experiment: Virus titration assay (TCID50) after kaempferol treatment; assay type: cell-based, Channel catfish virus (CCV, Ictalurid herpesvirus 1); conditions: increasing concentration 2.5-15 μg/mL, 24 and 36 h post CCV infection
Protocol: The CCO cells were infected with the CCV at 10^3 TCID50/ml at 28°C for 1 h. Then, the cell culture medium was replaced using isopycnic DMEM medium containing various concentrations kaempferol (2.5, 5, 7.5, 10, 12.5, and 15 μg/mL). The cells without exposure to kaempferol and CCV were set as the mock control. CCV-infected cells served as a negative control. 24 and 36 h post-infection, the cells were collected and subjected to the RT-qPCR and western blot analysis for the viral gene and protein expression. Meanwhile, the cells were treated as described above for the determination of virus titer. The supernatant and cell pellets were collected at 24 and 36 h post-infection and the TCID50 was used to evaluate the viral loads of intracellular and extracellular.
Measurement of viral titer was described previously ([5]). […]
Figure 3 The anti-CCV activity by different concentration of kaempferol in vitro. […] The relative expression levels of the CCV ORF 39 and ORF 59 genes were evaluated by RT-qPCR at 24 h (A) and 36 h (B) post-infection. […] The cells were collected at 24 h (E) and 36 h (F) after infection and CCV ORF 39 and ORF59 proteins and cellular GADPH were analyzed by western blot. (G) The intracellular and released CCV virions separated from cell lysates and supernatants at 24 h and 36 h post infection were analyzed by viral titer. […] The p value was determined by *p < 0.05, **p < 0.01.

[1] = system: CCV (strain VR-665) in CCO cells; experiment: Antiviral activity screening assay, CCV gene expression by RT-qPCR; assay type: cell-based, Channel catfish virus (CCV, Ictalurid herpesvirus 1); conditions: maximum safe concentration, added 1 h after CCV infection, 36 h
Protocol: To test the anti-CCV effect of tested compounds in the preliminary screening, CCO cells were seeded in 24-well plates and cultured to reach approximately 90% confluence in each well at 28°C. Subsequently, the cells were infected with the CCV at 10^3 TCID50/ml at 28°C for 1 h. After that, the cell culture medium was replaced using an isopycnic DMEM medium containing the maximum safe concentration of indicated compounds. CCV-infected cells treated with DMSO served as a negative control, whereas CCV-infected cells treated with acyclovir (2.5 μg/mL) served as a positive control ([33]). […] According to the percentage inhibition results, we further detected the antiviral activity of kaempferol at maximum safe concentration by viral cytopathic effects (CPE) and western blot analysis.
For RT-qPCR, the total RNA was isolated from CCV-infected cells using RnaExTM (Trizol)^a reagent (GENERAY, China), and reversed transcribed applying a HiScript III RT SuperMix with gDNA wiper (Vazyme, China) following the manufacturer’s instructions. Quantitative PCR was performed with a LightCycler 96 Real-Time PCR Detection System (Roche, USA) using ChamQ Universal SYBR qPCR Master Mix (Vazyme, China) with the following cycle conditions: 95°C for 30 s, followed by 40 cycles of 95°C for 10 s and 60°C for 30 s. […] Fold changes of the selected gene vs 18 s (internal reference) were calculated by the 2^−△△Ct method. […]

O=c1c(O)c(-c2ccc(O)cc2)oc2cc(O)cc(O)c12 [Kaempferol]
intracellular and progeny viral loads (viral titer) (CCV in CCO cells): dramatically reduced
inhibitory rate of CCV ORF 39 and 59 genes [1]: 99.9%
